This note sets out measurements from patent US12338203B2 (TAISHO PHARMACEUTICAL CO., LTD., priority 2019, dated 2025).

The structures appear in SMILES notation.

The target in the experiment is T1, human LPAR1 (Homo sapiens, UniProt Q92633).
T1 construct: expressed in transfected cells
T1 sequence (Q92633 whole entry): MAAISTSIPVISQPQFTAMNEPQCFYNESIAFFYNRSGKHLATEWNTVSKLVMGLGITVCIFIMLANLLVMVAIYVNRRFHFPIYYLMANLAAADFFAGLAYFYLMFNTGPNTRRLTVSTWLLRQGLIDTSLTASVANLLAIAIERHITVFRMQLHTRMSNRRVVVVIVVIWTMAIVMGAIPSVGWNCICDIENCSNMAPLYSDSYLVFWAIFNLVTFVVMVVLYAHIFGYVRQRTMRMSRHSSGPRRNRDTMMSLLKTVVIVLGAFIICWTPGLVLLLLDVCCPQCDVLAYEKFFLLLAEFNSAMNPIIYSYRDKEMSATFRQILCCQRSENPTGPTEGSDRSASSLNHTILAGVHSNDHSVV
Briefly: Test Example 1: antagonism against response of LPA-induced increase in intracellular Ca2+ concentration in RH7777 cells stably expressing human LPAR1. Format: cell-based. To be noted: RH7777 cells stably expressing human LPAR1; Fluo-4 fluorescence, FDSS6000; read-out: IC50 value (concentration producing 50% antagonism against response of LPA-induced increase in intracellular Ca2+ concentration) (converted). In a few lines:
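RH7777 cells stably transfected with human LPAR1 were preincubated with test compound 30 min at 37 °C in HBSS/20 mM HEPES/probenecid/0.05% BSA buffer, pH 7.4, then LPA-stimulated.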
For the molecule `CCOc1c(C(C)=O)ccc([C@@H](C)N(CCCCc2ccccc2)C(=O)NC2CCC2C(=O)O)c1C` (stereo partly shown) [Example 1-127], the IC50 was 0.0337 µM. As to `CCOc1cc(C(C)N(CCCCc2ccccc2)C(=O)NC2CC(C(=O)O)C2)cc(OCC)c1C(C)=O` (stereo not shown) [Example 1-128], the IC50 is 0.00638 µM. For `CCOc1cc(C(C)N(CCCCc2ccccc2)C(=O)NC2CC(C(=O)O)C2)cc(OCC)c1C(C)=O` (stereo not shown) [Example 1-129] the value was 0.00998 µM; for `CCOc1cc([C@@H](C)N(CCCCc2ccccc2)C(=O)NC2CC(C(=O)O)C2)cc(OCC)c1C1CC1` (stereo partly shown) [Example 1-130], 0.00648 µM; for `CCOc1cc([C@@H](C)N(CCCCc2ccccc2)C(=O)NC2CCC[C@H]2C(=O)O)cc(OCC)c1C(C)=O` (stereo partly shown) [Example 1-133], 0.00121 µM. With `CCOc1cc([C@@H](C)N(CCCCc2ccccc2)C(=O)NC2CCC[C@@H]2C(=O)O)cc(OCC)c1C(C)=O` (stereo partly shown) [Example 1-134] the figure was 0.0145 µM; with `CCOc1cc([C@@H](C)N(CCCCc2ccccc2)C(=O)NC2CCCC2C(=O)O)cc(OCC)c1C(C)=O` (stereo partly shown) [Example 1-135], 0.00217 µM; with `CCOc1cc(C(C)N(CCCCc2ccccc2)C(=O)NC2CCC[C@H]2C(=O)O)cc(OCC)c1C` (stereo partly shown) [Example 1-136], 0.0182 µM. Regarding `CCOc1cc(C(C)N(CCCCc2ccccc2)C(=O)NC2CCC[C@@H]2C(=O)O)cc(OCC)c1C` (stereo partly shown) [Example 1-137], the IC50 is 0.102 µM. Consider `CCOc1cc(C(C)N(CCCCc2ccccc2)C(=O)NC2CCC(C(=O)O)C2)cc(OCC)c1C(C)=O` (stereo not shown) [Example 1-139], for which the IC50 was 0.00309 µM. Take `CCOc1cc([C@@H](C)N(CCCCc2ccccc2)C(=O)NC2CCC(C(=O)O)C2)cc(OCC)c1C(C)=O` (stereo partly shown) [Example 1-140]: the IC50 is 0.0659 µM. For `CCOc1cc([C@@H](C)N(CCCCc2ccccc2)C(=O)NC2CCC(C(=O)O)C2)cc(OCC)c1C(C)=O` (stereo partly shown) [Example 1-141] the value was 0.0429 µM.

In the case of `CCOc1cc([C@@H](C)N(CCCCc2ccccc2)C(=O)NC2CCC(C(=O)O)C2)cc(OCC)c1C` (stereo partly shown) [Example 1-142], the IC50 is 0.0492 µM. With `CCOc1cc(C(C)N(CCCCc2ccccc2)C(=O)NC2CCC(C(=O)O)CC2)cc(OCC)c1C` (stereo not shown) [Example 1-143] the figure was 0.2 µM; with `CCOc1cc([C@@H](C)N(CCCCc2ccccc2)C(=O)NCC2(C(=O)O)CC2)cc(OCC)c1C(C)=O` [Example 1-144], 0.0287 µM; with `CCOc1cc([C@@H](C)N(CCCCc2ccccc2)C(=O)NC2(CC(=O)O)CC2)cc(OCC)c1C(C)=O` [Example 1-145], 0.00172 µM.

As to `CCOc1cc(C(C)N(CCCCc2ccccc2)C(=O)NC2(CC(=O)O)CCCC2)cc(OCC)c1C` (stereo not shown) [Example 1-146], the IC50 was 0.0243 µM. For `CCOc1cc(C(C)N(CCCCc2ccccc2)C(=O)NC2(CC(=O)O)Cc3ccccc3C2)cc(OCC)c1C` (stereo not shown) [Example 1-147] the value was 0.0406 µM; for `CCOc1cc(C(C)N(CCCCc2ccccc2)C(=O)NC2CC(CC(=O)O)C2)cc(OCC)c1C` (stereo not shown) [Example 1-148], 0.0255 µM; for `CCOc1cc([C@@H](C)N(CCCCc2ccccc2)C(=O)NC2(C(=O)O)COC2)cc(OCC)c1C(C)=O` [Example 1-149, 3-({[(1R)-1-(4-Acetyl-3,5-Diethoxyphenyl)Ethyl](4-Phenylbutyl) Carbamoyl}Amino) Oxetane-3-Carboxylic Acid], 0.00224 µM.

As for `CCOc1cc([C@@H](C)N(CCCCc2ccccc2)C(=O)NC2(C(=O)O)CCOC2)cc(OCC)c1C` (stereo partly shown) [Example 1-150], the IC50 was 0.008 µM. For `CCOc1cc([C@@H](C)N(CCCCc2ccccc2)C(=O)NC2(C(=O)O)CCOCC2)cc(OCC)c1C(C)=O` [Example 1-151] the value was 0.00357 µM. For `CCOc1cc([C@@H](C)N(CCCCc2ccccc2)C(=O)NC2(C(=O)O)CCOCC2)cc(OCC)c1C(C)O` (stereo partly drawn) [Example 1-152, 4-{[{(1R)-1-[3,5-Diethoxy-4-(1-Hydroxyethyl)Phenyl]Ethyl}(4-Phenylbutyl) Carbamoyl]Amino}Oxane-4-Carboxylic Acid] the value was 0.00517 µM. For `CCOc1cc([C@@H](C)N(CCCCc2ccccc2)C(=O)NC2(C(=O)O)CCOCC2)cc(OCC)c1C1(O)CC1` [Example 1-153] the value was 0.173 µM; for `CCOc1cc([C@@H](C)N(CCCCc2ccccc2)C(=O)NC2(C(=O)O)CCOCC2)cc(OCC)c1C` [Example 1-154], 0.0113 µM; for `CCOc1cc([C@@H](C)N(CCCCc2ccccc2)C(=O)NC2(C(=O)O)CCOCC2)cc(OCC)c1C1CC1` [Example 1-155], 0.000997 µM. For `CCOc1c(C(C)=O)ccc([C@@H](C)N(CCCCc2ccccc2)C(=O)NC2(C(=O)O)CCOCC2)c1C` [Example 1-156], the IC50 is 0.00368 µM.

Regarding `CCOc1cc([C@@H](C)N(CCCCc2ccccc2)C(=O)NC2(C(=O)O)CCS(=O)(=O)CC2)cc(OCC)c1C` [Example 1-157], the IC50 was 0.00324 µM. In the case of `CCOc1cc([C@@H](C)N(CCCCc2ccccc2)C(=O)NC2(C(=O)O)CNC2)cc(OCC)c1C` [Example 1-158, 3-({[(1R)-1-(3,5-Diethoxy-4-Methylphenyl)Ethyl](4-Phenylbutyl) Carbamoyl}Amino) Azetidine-3-Carboxylic Acid], the IC50 was 0.294 µM. For `CCOc1cc([C@@H](C)N(CCCCc2ccccc2)C(=O)NC2(C(=O)O)CN(C(C)=O)C2)cc(OCC)c1C` [Example 1-159, 1-Acetyl-3-({[(1R)-1-(3,5-Diethoxy-4-Methylphenyl)Ethyl](4-Phenylbutyl) Carbamoyl}Amino) Azetidine-3-Carboxylic Acid], the IC50 was 0.00256 µM. For `CCOc1cc([C@@H](C)N(CCCCc2ccccc2)C(=O)NC2(C(=O)O)CCN(C(C)=O)CC2)cc(OCC)c1C` [Example 1-160] the value was 0.0119 µM; for `CCOc1cc([C@@H](C)N(CCCCc2ccccc2)C(=O)N[C@H]2COC[C@H]2C(=O)O)cc(OCC)c1C(C)=O` [Example 1-161], 0.00964 µM; for `CCOc1cc([C@@H](C)N(CCCCc2ccccc2)C(=O)N[C@H]2COC[C@H]2C(=O)O)cc(OCC)c1C(C)=O` [Example 1-162], 0.00392 µM. As for `CCOc1cc([C@@H](C)N(CCCCc2ccccc2)C(=O)NC2CC(C(=O)O)N(C(C)=O)C2)cc(OCC)c1C(C)=O` (stereo partly shown) [Example 1-163], the IC50 was 0.0205 µM. As to `CCOc1cc([C@@H](C)N(CCCCc2ccccc2)C(=O)NC2CC(C(=O)O)N(C(C)=O)C2)cc(OCC)c1C(C)=O` (stereo partly shown) [Example 1-164], the IC50 was 0.0384 µM. For the molecule `CCOc1cc([C@@H](C)N(CCCCc2ccccc2)C(=O)NCC2(C(=O)O)CCOCC2)cc(OCC)c1C(C)=O` [Example 1-165], the IC50 is 0.0648 µM. Consider `CCOc1cc([C@@H](C)N(CCCCc2ccccc2)C(=O)NC2(CC(=O)O)CCOCC2)cc(OCC)c1C(C)=O` [Example 1-166], for which the IC50 is 0.011 µM. For `CCOc1cc([C@@H](C)N(CCCCc2ccccc2)C(=O)N(C)C2(C(=O)O)CC(F)(F)C2)cc(OCC)c1C` [Example 2-1, 1-[{[(1R)-1-(3,5-Diethoxy-4-Methylphenyl)Ethyl](4-Phenylbutyl) Carbamoyl}(Methyl)Amino]-3,3-Difluorocyclobutane-1-Carboxylic Acid] the value was 0.608 µM; for `CCOc1cc(CN(CCCCc2ccccc2)C(=O)NC2(C(=O)O)CCCC2)cc(OCC)c1C` [Example 3-2], 0.0858 µM; for `CCC(c1cc(OC)c(C)c(OC)c1)N(CCCCc1ccccc1)C(=O)NC1(C(=O)O)CC(F)(F)C1` (stereo not shown) [Example 3-3], 0.0301 µM. As for `CCOc1cc(C(CO)N(CCCCc2ccccc2)C(=O)NC2(C(=O)O)CC(F)(F)C2)cc(OCC)c1C(C)=O` (stereo not shown) [Example 3-4, 1-({[1-(4-Acetyl-3,5-Diethoxyphenyl)-2-Hydroxyethyl](4-Phenylbutyl) Carbamoyl}Amino)-3,3-Difluorocyclobutane-1-Carboxylic Acid], the IC50 was 0.00403 µM.

With `CCOc1cc(C(CO)N(CCCCc2ccccc2)C(=O)NC2(C(=O)O)CC(F)(F)C2)cc(OCC)c1C` (stereo not shown) [Example 3-5], the IC50 is 0.00488 µM. In the case of `COc1cc(C(CO)N(CCCCc2ccccc2)C(=O)NC2(C(=O)O)CC(F)(F)C2)cc(OC)c1C` (stereo not shown) [Example 3-6], the IC50 was 0.00707 µM. For `COc1cc(C(CO)N(CCCCc2ccccc2)C(=O)NC2(C(=O)O)CCCC2)cc(OC)c1C` (stereo not shown) [Example 3-7] the value was 0.0745 µM. For `CCOc1cc(C(CO)N(CCCCc2ccccc2)C(=O)NC2(C(=O)O)Cc3ccccc3C2)cc(OCC)c1C` (stereo not shown) [Example 3-8] the value was 0.0335 µM; for `COc1cc(C(CO)N(CCCCc2ccccc2)C(=O)NC2(C(=O)O)Cc3ccccc3C2)cc(OC)c1C` (stereo not shown) [Example 3-9], 0.0627 µM. Consider `CCOc1cc(C(COC)N(CCCCc2ccccc2)C(=O)NC2(C(=O)O)CC(F)(F)C2)cc(OCC)c1C` (stereo not shown) [Example 3-10], for which the IC50 was 0.114 µM. Regarding `CCCCN(C(=O)NC1(C(=O)O)CC(F)(F)C1)[C@H](C)c1cc(OCC)c(C)c(OCC)c1` [Example 4-1, 1-({Butyl[(1R)-1-(3,5-Diethoxy-4-Methylphenyl)Ethyl]Carbamoyl}Amino)-3,3-Difluorocyclobutane-1-Carboxylic Acid], the IC50 is 2.5 µM. Take `CCOc1cc([C@@H](C)N(CCCCC(C)C)C(=O)NC2(C(=O)O)CC(F)(F)C2)cc(OCC)c1C` [Example 4-2]: the IC50 is 0.00834 µM. As to `CCOc1cc([C@@H](C)N(CCCc2ccccc2F)C(=O)NC2(C(=O)O)CC(F)(F)C2)cc(OCC)c1C` [Example 4-4, 1-({[(1R)-1-(3,5-Diethoxy-4-Methylphenyl)Ethyl][3-(2-Fluorophenyl) Propyl]Carbamoyl}Amino)-3,3-Difluorocyclobutane-1-Carboxylic Acid], the IC50 was 0.00964 µM. On to `CCOc1cc([C@@H](C)N(CCCc2ccc(F)cc2)C(=O)NC2(C(=O)O)CC(F)(F)C2)cc(OCC)c1C` [Example 4-5], for which the IC50 was 0.00691 µM. With `CCOc1cc(C(C)N(CCCc2cccc(F)c2)C(=O)NC2(C(=O)O)CC(F)(F)C2)cc(OCC)c1C` (stereo not shown) [Example 4-7] the figure was 0.0252 µM.
